Measurements from ChEMBL document CHEMBL5625164, “Design, synthesis, and evaluation of new anti-inflammatory natural products amide derivatives endowed with anti-blood cancer activity towards development of potential multifunctional agents against hematological cancers” (Eur J Med Chem, 2023).
pIC50: −log10 of the molar value.

Experiments:
[1] = Cytotoxicity against mouse RAW264.7 cells assessed as macrophage viability at 10 uM relative to control; format: toxicity, cell-based; settings: read-out: Activity
BV-2 [2] = experiment: Anti-inflammatory activity against mouse BV-2 cells assessed as inhibition of LPS-induced NO production pretreated for 2 hrs followed stimulated with LPS for 22 hrs by Griess reaction assay; format: functional, cell-based
BV-2 [3] = experiment: Anti-inflammatory activity against mouse BV-2 cells assessed as inhibition of LPS-induced NO production at 10 uM pretreated for 2 hrs followed stimulated with LPS for 22 hrs by Griess reaction assay relative to control; format: functional; settings: time 24 hrs
BV-2 [4] = experiment: Anti-inflammatory activity against mouse BV-2 cells assessed as inhibition of LPS-induced PGE2 production pretreated for 2 hrs followed stimulated with LPS for 22 hrs; format: functional, cell-based
BV-2 [5] = experiment: Anti-inflammatory activity against mouse BV-2 cells assessed as inhibition of LPS-induced PGE2 production pretreated for 2 hrs followed stimulated with LPS for 22 hrs at 10 uM relative to control; format: functional; settings: time 24 hrs
BV-2 [6] = experiment: Anti-inflammatory activity against mouse BV-2 cells assessed as inhibition of LPS-induced TNFalpha production pretreated for 2 hrs followed stimulated with LPS for 22 hrs; format: functional, cell-based; settings: time 24.0 hrs
BV-2 [7] = experiment: Anti-inflammatory activity against mouse BV-2 cells assessed as inhibition of LPS-induced TNFalpha production pretreated for 2 hrs followed stimulated with LPS for 22 hrs at 10 uM relative to control; format: functional; settings: time 24 hrs
CCRF-CEM [8] = experiment: Anticancer activity against human CCRF-CEM cells assessed as growth inhibition at 10 uM measured after 48 hrs by SRB assay relative to control; format: functional; settings: read-out: GI
K562 [9] = experiment: Anticancer activity against human K562 cells assessed as growth inhibition at 10 uM measured after 48 hrs by SRB assay relative to control; format: functional; settings: read-out: GI
MOLT-4 [10] = experiment: Anticancer activity against human MOLT-4 cells assessed as growth inhibition at 10 uM measured after 48 hrs by SRB assay relative to control; format: functional; settings: read-out: GI
RPMI-8226 [11] = experiment: Anticancer activity against human RPMI-8226 cells assessed as growth inhibition at 10 uM measured after 48 hrs by SRB assay relative to control; format: functional; settings: read-out: GI
SR [12] = experiment: Anticancer activity against human SR cells assessed as growth inhibition at 10 uM measured after 48 hrs by SRB assay relative to control; format: functional; settings: read-out: GI
CCRF-CEM [13] = experiment: Anticancer activity against human CCRF-CEM cells assessed as growth inhibition measured after 48 hrs by SRB assay relative to control; format: functional
HL-60 [14] = experiment: Anticancer activity against human HL-60 cells assessed as growth inhibition measured after 48 hrs by SRB assay relative to control; format: functional
K562 [15] = experiment: Anticancer activity against human K562 cells assessed as growth inhibition measured after 48 hrs by SRB assay relative to control; format: functional
MOLT-4 [16] = experiment: Anticancer activity against human MOLT-4 cells assessed as growth inhibition measured after 48 hrs by SRB assay relative to control; format: functional
RPMI-8226 [17] = experiment: Anticancer activity against human RPMI-8226 cells assessed as growth inhibition measured after 48 hrs by SRB assay relative to control; format: functional
SR [18] = experiment: Anticancer activity against human SR cells assessed as growth inhibition measured after 48 hrs by SRB assay relative to control; format: functional
HL-60 [19] = experiment: Induction of cell cycle arrest in human HL-60 cells assessed as accumulation of cells at SubG1 phase at 10 uM measured after 24 hrs by propidium iodide staining based flow cytometry (reference value: 5.89%); format: functional
HL-60 [20] = experiment: Induction of cell cycle arrest in human HL-60 cells assessed as accumulation of cells at G0/G1 phase at 10 uM measured after 24 hrs by propidium iodide staining based flow cytometry (reference value: 66.61%); format: functional
HL-60 [21] = experiment: Induction of cell cycle arrest in human HL-60 cells assessed as accumulation of cells at S phase at 10 uM measured after 24 hrs by propidium iodide staining based flow cytometry (reference value: 13.85%); format: functional
HL-60 [22] = experiment: Induction of cell cycle arrest in human HL-60 cells assessed as accumulation of cells at G2/M phase at 10 uM measured after 24 hrs by propidium iodide staining based flow cytometry (reference value: 9.01%); format: functional
HL-60 [23] = experiment: Induction of cell cycle arrest in human HL-60 cells assessed as accumulation of cells at SubG1 phase at 25 uM measured after 24 hrs by propidium iodide staining based flow cytometry (reference value: 5.89%); format: functional
HL-60 [24] = experiment: Induction of cell cycle arrest in human HL-60 cells assessed as accumulation of cells at G0/G1 phase at 25 uM measured after 24 hrs by propidium iodide staining based flow cytometry (reference value: 66.61%); format: functional
HL-60 [25] = experiment: Induction of cell cycle arrest in human HL-60 cells assessed as accumulation of cells at S phase at 25 uM measured after 24 hrs by propidium iodide staining based flow cytometry (reference value: 13.85%); format: functional
HL-60 [26] = experiment: Induction of cell cycle arrest in human HL-60 cells assessed as accumulation of cells at G2/M phase at 25 uM measured after 24 hrs by propidium iodide staining based flow cytometry (reference value: 9.01%); format: functional
HL-60 [27] = experiment: Induction of cell cycle arrest in human HL-60 cells assessed as accumulation of cells at SubG1 phase at 50 uM measured after 24 hrs by propidium iodide staining based flow cytometry (reference value: 5.89%); format: functional
HL-60 [28] = experiment: Induction of cell cycle arrest in human HL-60 cells assessed as accumulation of cells at G0/G1 phase at 50 uM measured after 24 hrs by propidium iodide staining based flow cytometry (reference value: 66.61%); format: functional
HL-60 [29] = experiment: Induction of cell cycle arrest in human HL-60 cells assessed as accumulation of cells at S phase at 50 uM measured after 24 hrs by propidium iodide staining based flow cytometry (reference value: 13.85%); format: functional
HL-60 [30] = experiment: Induction of cell cycle arrest in human HL-60 cells assessed as accumulation of cells at G2/M phase at 50 uM measured after 24 hrs by propidium iodide staining based flow cytometry (reference value: 9.01%); format: functional
HL-60 [31] = experiment: Induction of cell cycle arrest in human HL-60 cells assessed as accumulation of cells at SubG1 phase at 10 uM measured after 48 hrs by propidium iodide staining based flow cytometry (reference value: 4.25%); format: functional
HL-60 [32] = experiment: Induction of cell cycle arrest in human HL-60 cells assessed as accumulation of cells at G0/G1 phase at 10 uM measured after 48 hrs by propidium iodide staining based flow cytometry (reference value: 60.03%); format: functional
HL-60 [33] = experiment: Induction of cell cycle arrest in human HL-60 cells assessed as accumulation of cells at S phase at 10 uM measured after 48 hrs by propidium iodide staining based flow cytometry (reference value: 7.16%); format: functional
HL-60 [34] = experiment: Induction of cell cycle arrest in human HL-60 cells assessed as accumulation of cells at G2/M phase at 10 uM measured after 48 hrs by propidium iodide staining based flow cytometry (reference value: 16.61%); format: functional
HL-60 [35] = experiment: Induction of cell cycle arrest in human HL-60 cells assessed as accumulation of cells at SubG1 phase at 25 uM measured after 48 hrs by propidium iodide staining based flow cytometry (reference value: 4.25%); format: functional
HL-60 [36] = experiment: Induction of cell cycle arrest in human HL-60 cells assessed as accumulation of cells at G0/G1 phase at 25 uM measured after 48 hrs by propidium iodide staining based flow cytometry (reference value: 60.03%); format: functional
HL-60 [37] = experiment: Induction of cell cycle arrest in human HL-60 cells assessed as accumulation of cells at S phase at 25 uM measured after 48 hrs by propidium iodide staining based flow cytometry (reference value: 7.16%); format: functional
HL-60 [38] = experiment: Induction of cell cycle arrest in human HL-60 cells assessed as accumulation of cells at G2/M phase at 25 uM measured after 48 hrs by propidium iodide staining based flow cytometry (reference value: 16.61%); format: functional
HL-60 [39] = experiment: Induction of cell cycle arrest in human HL-60 cells assessed as accumulation of cells at SubG1 phase at 50 uM measured after 48 hrs by propidium iodide staining based flow cytometry (reference value: 4.25%); format: functional
HL-60 [40] = experiment: Induction of cell cycle arrest in human HL-60 cells assessed as accumulation of cells at G0/G1 phase at 50 uM measured after 48 hrs by propidium iodide staining based flow cytometry (reference value: 60.03%); format: functional
HL-60 [41] = experiment: Induction of cell cycle arrest in human HL-60 cells assessed as accumulation of cells at S phase at 50 uM measured after 48 hrs by propidium iodide staining based flow cytometry (reference value: 7.16%); format: functional
HL-60 [42] = experiment: Induction of cell cycle arrest in human HL-60 cells assessed as accumulation of cells at G2/M phase at 50 uM measured after 48 hrs by propidium iodide staining based flow cytometry (reference value: 16.61%); format: functional
HL-60 [43] = experiment: Induction of apoptosis in human HL-60 cells assessed as early apoptotic cells measured after 24 hrs by annexin V/propidium iodide staining based FACS assay; format: functional, cell-based; settings: dose 10-50 µM
HL-60 [44] = experiment: Induction of apoptosis in human HL-60 cells assessed as total apoptotic cells measured after 24 hrs by annexin V/propidium iodide staining based FACS assay; format: functional, cell-based; settings: dose 10-50 µM

Q: Which viability at 10 µM [1] does the source give for `COc1cc2c(c(OC)c1OC)C(=O)CC(c1cccc(NC(=O)c3ccc(Br)cc3)c1)O2` (racemic) here?
A: The viability at 10 µM was 106%.

Q: What about the pIC50 (BV-2 [2]) of the same compound?
A: Its pIC50 is 4.83.

Q: And the inhibition at 10 µM (BV-2 [3])?
A: The inhibition at 10 µM was 45.2%.

Q: What about the pIC50 (BV-2 [4]) of the same compound?
A: Its pIC50 is 5.04.

Q: What about the inhibition at 10 µM (BV-2 [5]) of the same compound?
A: Its inhibition at 10 µM is 61.1%.

Q: And the Activity (BV-2 [6])?
A: Its Activity is “Dose-Dependent Effect”.

Q: And the inhibition at 10 µM (BV-2 [7])?
A: Its inhibition at 10 µM is 50%.

Q: And the inhibition of growth at 10 µM (CCRF-CEM [8])?
A: Its inhibition of growth at 10 µM is 97.1%.

Q: What about the inhibition of growth at 10 µM (K562 [9]) of the same compound?
A: Its inhibition of growth at 10 µM is 94.1%.

Q: What about the inhibition of growth at 10 µM (MOLT-4 [10]) of the same compound?
A: The inhibition of growth at 10 µM was 112%.

Q: What about the inhibition of growth at 10 µM (RPMI-8226 [11]) of the same compound?
A: The inhibition of growth at 10 µM was 105%.

Q: And the inhibition of growth at 10 µM (SR [12])?
A: Its inhibition of growth at 10 µM is 96.1%.

Q: What about the GI50 (CCRF-CEM [13]) of the same compound?
A: The GI50 was 2620 nM.

Q: And the GI50 (HL-60 [14])?
A: Its GI50 is 1640 nM.

Q: And the GI50 (K562 [15])?
A: Its GI50 is 1420 nM.

Q: And the GI50 (MOLT-4 [16])?
A: The GI50 was 1630 nM.

Q: And the GI50 (RPMI-8226 [17])?
A: Its GI50 is 1580 nM.

Q: And the GI50 (SR [18])?
A: Its GI50 is 1340 nM.

Q: And the Activity (HL-60 [19])?
A: The Activity was 6.15%.

Q: And the Activity (HL-60 [20])?
A: The Activity was 51.19%.

Q: What about the Activity (HL-60 [21]) of the same compound?
A: Its Activity is 19.25%.

Q: And the Activity (HL-60 [22])?
A: Its Activity is 5.69%.

Q: What about the Activity (HL-60 [23]) of the same compound?
A: Its Activity is 43.13%.

Q: And the Activity (HL-60 [24])?
A: The Activity was 2.08%.

Q: And the Activity (HL-60 [25])?
A: Its Activity is 27.79%.

Q: And the Activity (HL-60 [26])?
A: The Activity was 2.22%.

Q: And the Activity (HL-60 [27])?
A: Its Activity is 70.09%.

Q: What about the Activity (HL-60 [28]) of the same compound?
A: Its Activity is 4.82%.

Q: What about the Activity (HL-60 [29]) of the same compound?
A: The Activity was 5.77%.

Q: What about the Activity (HL-60 [30]) of the same compound?
A: Its Activity is 1.8%.

Q: What about the Activity (HL-60 [31]) of the same compound?
A: The Activity was 8.99%.

Q: And the Activity (HL-60 [32])?
A: Its Activity is 33.83%.

Q: And the Activity (HL-60 [33])?
A: The Activity was 12.39%.

Q: And the Activity (HL-60 [34])?
A: Its Activity is 26.61%.

Q: And the Activity (HL-60 [35])?
A: The Activity was 74.54%.

Q: What about the Activity (HL-60 [36]) of the same compound?
A: Its Activity is 5.89%.

Q: And the Activity (HL-60 [37])?
A: Its Activity is 1.33%.

Q: What about the Activity (HL-60 [38]) of the same compound?
A: Its Activity is 10.01%.

Q: What about the Activity (HL-60 [39]) of the same compound?
A: The Activity was 90.39%.

Q: What about the Activity (HL-60 [40]) of the same compound?
A: The Activity was 3.96%.

Q: What about the Activity (HL-60 [41]) of the same compound?
A: The Activity was 1.21%.

Q: And the Activity (HL-60 [42])?
A: The Activity was 1.61%.

Q: What about the Activity (HL-60 [43]) of the same compound?
A: Its Activity is “Dose-Dependent Effect”.

Q: And the Activity (HL-60 [44])?
A: Its Activity is “Dose-Dependent Effect”.
